Source: the supplement of paper PMC4862054

Columns and labels:
Settings in all cases: incubation time: 72 h
CAL-148 [1] = assay: normalised response (% of control), CellTiter-Glo; higher = more viable cells (100 = DMSO, 0 = benzethonium chloride kill control)
Method: (§1)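 DSRT, 72 h incubation, CellTox Green / CellTiter-Glo readout. Signal is normalised to DMSO and benzethonium chloride controls. Value is the normalised response at dose 3.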

MDA-MB-231 [2] = assay: as above
Method: as §1

CAL-120 [3] = assay: as above
Method: as §1

MDA-MB-468 [4] = assay: as above
Method: as §1

CAL-51 [5] = assay: as above
Method: as §1

BT-474 [6] = assay: as above
Method: as §1

MFM-223 [7] = assay: as above
Method: as §1

HCC1937 [8] = assay: as above
Method: as §1

HDQ-P1 [9] = assay: as above
Method: as §1

SK-BR-3 = assay: as above
Method: as §1

HCC1143 [10] = assay: as above
Method: as §1

MCF-10A [11] = assay: as above
Method: as §1

DU-4475 [12] = assay: as above
Method: as §1

MDA-MB-436 [13] = assay: as above
Method: as §1

CAL-85-1 [14] = assay: as above
Method: as §1

Hs578T [15] = assay: as above
Method: as §1

HCC1599 [16] = assay: as above
Method: as §1

MDA-MB-453 [17] = assay: as above
Method: as §1

BT-549 [18] = assay: as above
Method: as §1

CAL-148 [19] = assay: normalised response (% of control), CellTox Green; higher = less cell death (100 = DMSO, 0 = benzethonium chloride kill control)
Outline: (§2)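 Compound was dispensed into 384-well plates at 5 concentrations in 10-fold steps spanning a 10,000-fold range specific to that compound. Breast cancer cell lines were added as 20 µl suspension and left for 72 h before CellTox Green fluorescence (485/520 nm) and then CellTiter-Glo luminescence, read after 10 min at room temperature. Each reported value is the normalised signal at one concentration, with 0.1 % DMSO set at 100 and a positive kill control at 0 on each plate.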

MDA-MB-231 [20] = assay: as above
Outline: as §2

CAL-120 [21] = assay: as above
Outline: as §2

MDA-MB-468 [22] = assay: as above
Outline: as §2

CAL-51 [23] = assay: as above
Outline: as §2

BT-474 [24] = assay: as above
Outline: as §2

MFM-223 [25] = assay: as above
Outline: as §2

HCC1937 [26] = assay: as above
Outline: as §2

HDQ-P1 [27] = assay: as above
Outline: as §2

HCC1143 [28] = assay: as above
Outline: as §2

MCF-10A [29] = assay: as above
Outline: as §2

DU-4475 [30] = assay: as above
Outline: as §2

MDA-MB-436 [31] = assay: as above
Outline: as §2

CAL-85-1 [32] = assay: as above
Outline: as §2

Hs578T [33] = assay: as above
Outline: as §2

HCC1599 [34] = assay: as above
Outline: as §2

MDA-MB-453 [35] = assay: as above
Outline: as §2

BT-549 [36] = assay: as above
Outline: as §2

Row | SMILES | normalised response (CAL-148 [1]) [%] | normalised response (MDA-MB-231 [2]) [%] | normalised response (CAL-120 [3]) [%] | normalised response (MDA-MB-468 [4]) [%] | normalised response (CAL-51 [5]) [%] | normalised response (BT-474 [6]) [%] | normalised response (MFM-223 [7]) [%] | normalised response (HCC1937 [8]) [%] | normalised response (HDQ-P1 [9]) [%] | normalised response (SK-BR-3) [%] | normalised response (HCC1143 [10]) [%] | normalised response (MCF-10A [11]) [%] | normalised response (DU-4475 [12]) [%] | normalised response (MDA-MB-436 [13]) [%] | normalised response (CAL-85-1 [14]) [%] | normalised response (Hs578T [15]) [%] | normalised response (HCC1599 [16]) [%] | normalised response (MDA-MB-453 [17]) [%] | normalised response (BT-549 [18]) [%] | normalised response (CAL-148 [19]) [%] | normalised response (MDA-MB-231 [20]) [%] | normalised response (CAL-120 [21]) [%] | normalised response (MDA-MB-468 [22]) [%] | normalised response (CAL-51 [23]) [%] | normalised response (BT-474 [24]) [%] | normalised response (MFM-223 [25]) [%] | normalised response (HCC1937 [26]) [%] | normalised response (HDQ-P1 [27]) [%] | normalised response (HCC1143 [28]) [%] | normalised response (MCF-10A [29]) [%] | normalised response (DU-4475 [30]) [%] | normalised response (MDA-MB-436 [31]) [%] | normalised response (CAL-85-1 [32]) [%] | normalised response (Hs578T [33]) [%] | normalised response (HCC1599 [34]) [%] | normalised response (MDA-MB-453 [35]) [%] | normalised response (BT-549 [36]) [%]
1 | COc1ncc(-c2ccc3nccc(-c4ccnnc4)c3c2)cc1NS(=O)(=O)c1ccc(F)cc1F (10 nM) | 96.1 | 82 | 75.7 | 80.2 | 77.2 | 78.3 | 82.7 | 78.7 | 60.7 | 53 | 85.2 | 63.7 | 93.1 | 84.6 | 69.5 | 77.5 | 83.4 | 63.3 | 72.7 | 91.5 | 106 | 102 | 68.8 | 104 | 93.4 | 96.3 | 96.1 | 89.5 | 107 | 110 | 101 | 106 | 81.9 | 95 | 112 | 102 | 106
2 | C[C@@]1(C(=O)Nc2ccc(F)nc2)CCCN1c1nc(Nc2cc(C3CC3)n[nH]2)c2cccn2n1 (100 nM) | 102 | 79.8 | 82.9 | 87.8 | 106 | 79.5 | 84.5 | 90.7 | 64.2 | 83.2 | 91.9 | 28.7 | 82.2 | 86.9 | 74.9 | 92.7 | 82.8 | 80 | 86.5 | 96.3 | 78.5 | 100 | 71.9 | 104 | 95.3 | 104 | 103 | 89 | 87.5 | 76.1 | 94.4 | 99.2 | 85.8 | 89.5 | 98 | 95.8 | 90.2
3 | Nc1nccc(-c2c(-c3ccc(F)cc3)ncn2C2CCCCC2)n1 (100 nM) | 105 | 106 | 105 | 96.2 | 84.4 | 99.9 | 102 | 102 | 95.2 | 97.3 | 112 | 105 | 101 | 113 | 98.9 | 104 | 102 | 104 | 98.3 | 101 | 112 | 102 | – | 94.3 | 103 | 104 | 78.4 | 104 | 100 | 110 | 107 | 81.8 | 97.7 | 86.7 | 98.9 | 98.8 | 93.9
4 | COc1c(C)cnc(Cn2cnc3c(Cl)nc(N)nc32)c1C [BIIB021] (100 nM) | 88.7 | 109 | 85.9 | 81.6 | 82.7 | 106 | 82.7 | 82.1 | 81.7 | 45 | 97.9 | 100 | 101 | 82.6 | 90.8 | 101 | 85 | 81.4 | 65.9 | 62.7 | 107 | 101 | 108 | 122 | 95.7 | 97 | 88.4 | 109 | 107 | 91.5 | 103 | 82 | 78.5 | 107 | 109 | 98.5 | 114
5 | C#Cc1cccc(Nc2ncnc3cc(OC)c(OCCCCCCC(=O)NO)cc23)c1 [CUDC-101] (100 nM) | 95.5 | 90.9 | 93.3 | 74.1 | 62.1 | 91.8 | 78.2 | 93.4 | 84 | 84.2 | 90.9 | 65.4 | 96.3 | 96.8 | 78.5 | 94.7 | 105 | 60.1 | 105 | 82.4 | 70.3 | 84.2 | 106 | 82.4 | 97 | 103 | 89.5 | 109 | 111 | 101 | 97 | – | 93.8 | 73.6 | 103 | 101 | 115
6 | C[C@@H]1C=C2C(=O)O[C@@H]3CC[C@H](C1)[C@]23O [Galiellalactone] (500 nM) | 120 | 110 | 106 | 101 | 109 | 102 | 110 | 107 | 103 | 108 | 109 | 109 | 103 | 101 | 100 | 104 | 101 | 105 | 101 | 99.8 | 114 | 103 | 126 | 115 | 99.7 | 96.2 | 100 | 110 | 73.3 | 104 | 105 | – | 93.5 | 105 | 116 | 104 | 89.4
7 | CS(=O)(=O)CCNCc1ccc(-c2ccc3ncnc(Nc4ccc(OCc5cccc(F)c5)c(Cl)c4)c3c2)o1 [Lapatinib] (10 nM) | 112 | 103 | 107 | 99.1 | 90.1 | 101 | 109 | 99.2 | 95.7 | 87.1 | 103 | 95.5 | 106 | 100 | 101 | 106 | 97.6 | 105 | 105 | – | 76.9 | 101 | 87.9 | 99.4 | 97.8 | 105 | 90.5 | 82.1 | 109 | 100 | 101 | 107 | 87.4 | 104 | 103 | 103 | 91.8
8 | COC1=CC(c2cc3ccccc3[nH]2)=N/C1=C\c1[nH]c(C)cc1C [Obatoclax] (100 nM) | 86 | 88.4 | 98.1 | 88.4 | 87.8 | 88.8 | 96.3 | 91.3 | 99.6 | 90.5 | 93.5 | 97.3 | 99.5 | 91.4 | 89.2 | 92.6 | 93 | 104 | 97.5 | 103 | 66.7 | 95 | 96.5 | 88.2 | 63 | 93.8 | 88.3 | 53.7 | 89.8 | 93.4 | 98.6 | – | 87.6 | 84.5 | 98.6 | 104 | 103
9 | Cn1c(=O)c(F)c(Nc2ccc(I)cc2F)c2c(=O)n(C[C@@H](O)CO)cnc21 [TAK-733] (10 nM) | 97.2 | 90.3 | 97.6 | 92.6 | 84.7 | 89.8 | 102 | 88 | 74.5 | 107 | 92.6 | 53.8 | 38.9 | 104 | 93.7 | 96.8 | 82.3 | 115 | 104 | 107 | 99.2 | 103 | 113 | 104 | 103 | 104 | – | -40.4 | 118 | 90.9 | 95.9 | 114 | 104 | 71.8 | 119 | 112 | 105
